Data on one molecule can be found in paper PMC6609550, “Blockade of the forward Na^+/Ca^2+ exchanger suppresses the growth of glioblastoma cells through Ca^2+‐mediated cell death” (British Journal of Pharmacology, 2019).

Common to all, as to format: cell-based, Human
One test concerns JNK. The experiment in a line: Western blot of phosphorylated and total JNK in U87 cells. The note with it: BAPTA‐AM 10 μM 18 hr then bepridil 25 μM 30 min. On the procedure:
(§1) After treatment with bepridil for 0, 30, 60, and 90 min, cells were collected and lysed in RIPA buffer (Beyotime, Nanjing, China) supplemented with protease inhibitor (Beyotime). The total protein concentration of each sample was determined using the BCA Protein Assay Kit (Sangon Biotech, Shanghai, China). Equal protein extracts (45‐μg protein per lane) were separated by SDS‐PAGE and electrophoretically transferred to PVDF membranes (Millipore, Bedford, MA, USA). Then, the membranes were incubated with anti‐phosphorylated and total http://www.guidetopharmacology.org/GRAC/FamilyDisplayForward?familyId=514, http://www.guidetopharmacology.org/GRAC/FamilyDisplayForward?familyId=518, and http://www.guidetopharmacology.org/GRAC/FamilyDisplayForward?familyId=519 antibodies (1:1,000; Cell Signaling Technology) at 4°C overnight, followed by incubation with IRDye 680LT fluorescent secondary antibody (LI‐COR Biosciences, Lincoln, NE, USA). Proteins were visualized using the Odyssey Fc Imaging System (LI‐COR Biosciences, Lincoln, NE, USA). Mouse α‐tubulin antibody was used as protein loading controls. The immuno‐related procedures used comply with the recommendations made by the British Journal of Pharmacology (Alexander et al., 2018).

For test [1], the system named is U87 cells. The experiment in a line: Cell cycle assay (PI staining, flow cytometry) of U87 cells. The procedure: (§2) U87 cells were seeded in six‐well plates (Corning, Corning, NY, USA) with 1 × 10^6 cells per well and treated with NCX blockers, BAPTA‐AM, or MAPK inhibitors. Drug treatment was performed by the person who is blinded to the experimental groups. After treatment, cells were harvested in 15‐ml tubes and washed with cold sterile PBS. After being centrifuged, cells were fixed with 70% ethanol […] at 4°C for at least 1 hr. For propidium iodide (PI) staining, cells were washed one time with PBS and then were treated with ribonuclease A (RNase; 100 μg·ml^−1) for 30 min. PI (10 μg·ml^−1) was added, and stained cells were kept in the dark at 4°C until analysis. The number of cells analysed for each sample was 10,000 events. FACS analysis was performed using the Coulter CytoFlexS flow cytometer (Beckman Coulter, CA, USA), and the percentage of cells in the G0/G1, S, and G2/M phases was determined using cell cycle analysis software, ModFit LT 5.0 (Verity Software House, Topsham, ME, USA). For the apoptosis assay, cells were harvested and washed twice with cold PBS and resuspended at a density of 1 × 10^6 cells·ml^−1 in 100 μl of binding buffer containing 5 μl of Annexin V–FITC and 5 μl of PI working solution (100 μg·ml^−1). After incubation at room temperature for 15 min in the dark, 400 μl of binding buffer was added to each sample. Apoptosis was analysed by Coulter CytoFlexS flow cytometer (Beckman Coulter) for at least 10,000 events, and data were analysed with the software, CyExpert 2.0 (Beckman Coulter).

The test system of the next test is [Ca^2+]i in U87 cells. The test is described as follows: Ca2+ imaging (Fluo-4 AM) of U87 cells. The note with it: BAPTA‐AM 20 μM for 2 hr before perfusion. The procedure: Cells were cultured in 96‐well plates at 8 × 10^3 per well and loaded with the cell membrane‐permeable Ca^2+ dye Fluo‐4 AM (5 μM) in 100‐μl HEPES‐buffered solution for 50 min. The solution contained (mM): 135 NaCl, 3 KCl, 2 CaCl2, 1 MgCl2, 10 glucose, and 10 HEPES, supplemented with 1% FBS at pH 7.4. To prepare the Ca^2+‐free solution, 2‐mM CaCl2 was replaced with 1‐mM EGTA in the HEPES‐buffered solution. The 96‐well plate containing the Fluo‐4 AM‐loaded cells was mounted in a Leica TCS SP8 confocal system (Leica Microsystems, Wetzlar, Germany). The confocal microscope armed with 488‐nm laser light was employed to excite the dynamic fluorescent signals in time and synchronously, while test regents were added to cells. To do Na^+ imaging, Fluo‐4 AM was replaced with the cell membrane‐permeable Na^+ dye Asante NaTrium Green‐2 AM (ANG‐2 AM) at 5 μM, which was excited by 514‐nm laser light. Visual inspection and fluorescent imaging were carried out at room temperature. The imaging data were analysed with the software https://leica-las-af-lite.software.informer.com/ 2.5 (Leica). The imaging traces shown are representative of at least three separate experiments; 12–18 cells were imaged in each experiment.

Test [2] deals with U87 cells. The test is described as follows: Annexin V–FITC/PI apoptosis assay of U87 cells. On the procedure: as §2
A further test deals with p38‐MAPK. The test is described as follows: Western blot of phosphorylated and total p38-MAPK in U87 cells. The note with it: BAPTA‐AM 10 μM 18 hr then bepridil 25 μM 30 min. The procedure:
as §1
Background: In western blotting, separated proteins are transferred to a membrane and probed.

[3] abbreviates: BAPTA‐AM 10 μM 18 hours then CB‐DMB 3.5 μM 18 hours.

Regarding `CC(=O)OCOC(=O)CN(CC(=O)OCOC(C)=O)c1ccccc1OCCOc1ccccc1N(CC(=O)OCOC(C)=O)CC(=O)OCOC(C)=O` [BAPTA‐AM, 1,2‐bis(2‐aminophenoxy)ethane‐N,N,N′,N′‐tetraacetic acid tetrakis (acetoxymethyl ester)], in the test with JNK, the “Effect on bepridil-induced JNK activation” value is reported as “attenuated”. In addition, the “Effect on CB-DMB-induced cell cycle arrest” value in the test with U87 cells [1] (setting [3]) is “significantly attenuated”. Also, in the test on U87 cells [1] (BAPTA‐AM 10 μM + KB‐R7943 25 μM, 18 hr), the “Effect on KB-R7943-induced G0/G1 arrest” value was “not rescued”. Further, the “Effect on bepridil-induced G0/G1 cell cycle arrest” value in the test with U87 cells [1] (bepridil 25 μM 18 hr, pretreatment BAPTA‐AM 10 μM, CC‐930 10 μM or PD169316 10 μM) is reported as “significantly attenuated”. Also, the “Effect of pretreatment on the influence of bepridil and KB‐R7943 on [Ca2+]i” value in test [Ca^2+]i in U87 cells is “completely abrogated”. Moreover, the “Effect on CB-DMB-induced apoptosis” value with U87 cells [2] (setting [3]) is “significantly suppressed”. For the same molecule, the “Effect on KB-R7943-induced apoptosis” value in the test with U87 cells [2] (BAPTA‐AM 10 μM + KB‐R7943 25 μM, 20 hr) is “not attenuated”. Moreover, the “Effect on bepridil-induced apoptosis” value in the test on U87 cells [2] (bepridil 25 μM 24 hr, pretreatment BAPTA‐AM 10 μM, CC‐930 10 μM or PD169316 10 μM) was “significantly attenuated”. For the same molecule, in the test on p38‐MAPK, the “Effect on bepridil-induced p38-MAPK activation” value is “attenuated”.
